Some test systems named below: A549; ACHN; CAKI-1; CCRF-CEM; COLO 205; EKVX; HL-60; HOP-62; K562; MOLT-4; NCI-H226; NCI-H460; NCI-H522; OVCAR-3; OVCAR-4; UACC-62; UO-31; HCC 2998; SK-MEL-2.
What all share (assay): NCI anticancer screen, dose series, 48 h

The structures appear in SMILES notation.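 Tested at 5 concentrations; 48 h exposure; 96-well plates; endpoints linearly interpolated, else capped at highest concentration. GI50 = concentration required for 50% inhibition of growth.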 Activity calls are given as the source filed them. Cut-off read from the data, not from the text of the source: active = GI50 up to about 1.1 µM and inactive = higher. Where only a bound is given, the exact number is not on record here.

Take `CSc1nnc(SC)nn1`: the GI50 with A549 was 20.9 µM (inactive); in the experiment on ACHN, 16.8 µM (inactive); in the experiment with CAKI-1, 16.9 µM (inactive); in the experiment on CCRF-CEM it was 1.81 µM (inactive); with COLO 205 it was 18.7 µM (inactive); with EKVX, 16.6 µM (inactive). Also, the GI50 is 3.65 µM (inactive) with HL-60; 15.3 µM (inactive) in the experiment with HOP-62; 8.04 µM (inactive) in the experiment with K562; 0.438 µM (active) with MOLT-4; 32.4 µM (inactive) with NCI-H226; 18.2 µM (inactive) in the experiment on NCI-H460. Further, the GI50 was 16.4 µM (inactive) in the experiment on NCI-H522; 16.2 µM (inactive) with OVCAR-3; 18.5 µM (inactive) with OVCAR-4; 18.2 µM (inactive) in the experiment on UACC-62; 15.5 µM (inactive) in the experiment with UO-31.
Turning to `CCCCCCCCCCCCNC(C)=O`, the GI50 in the experiment with A549 is 27 µM (inactive); with ACHN it was 23.2 µM (inactive); with CAKI-1, 17 µM (inactive); in the experiment on CCRF-CEM, 14.4 µM (inactive); with COLO 205 it was 17.7 µM (inactive); with EKVX, 11.4 µM (inactive). For the same compound, the GI50 is 17.5 µM (inactive) in the experiment on HCC 2998; 14.3 µM (inactive) with HOP-62; 18.7 µM (inactive) in the experiment with NCI-H226; 17.7 µM (inactive) with NCI-H460; 14 µM (inactive) with NCI-H522; 17.7 µM (inactive) in the experiment with OVCAR-3. Moreover, the GI50 in the experiment with SK-MEL-2 is 14.8 µM (inactive); in the experiment on UACC-62 it was 15.6 µM (inactive); in the experiment with UO-31, 20 µM (inactive).
As to `c1ccc(-c2nnc(-c3nn(-c4ccccc4)c4nc5ccccc5nc34)o2)cc1`, the GI50 in the experiment on A549 is > 100 µM (inactive); in the experiment with ACHN, 92.3 µM (inactive); in the experiment with CAKI-1, > 100 µM (inactive); in the experiment with CCRF-CEM, 18.6 µM (inactive); in the experiment with COLO 205, 93.8 µM (inactive); in the experiment with EKVX it was > 100 µM (inactive). For the same compound, the GI50 is > 100 µM (inactive) with HCC 2998; 20.6 µM (inactive) with HL-60; > 100 µM (inactive) with HOP-62; 31 µM (inactive) with K562; 21.5 µM (inactive) in the experiment with MOLT-4; 18.2 µM (inactive) in the experiment on NCI-H226. Besides, the GI50 is > 10 µM (inactive) with NCI-H460; 44.9 µM (inactive) in the experiment on NCI-H522; 66.8 µM (inactive) with OVCAR-3; > 100 µM (inactive) in the experiment on OVCAR-4; > 100 µM (inactive) in the experiment with SK-MEL-2; 69.2 µM (inactive) with UACC-62. In the experiment on UO-31, the GI50 was 37.2 µM (inactive).
Take `COc1ccc(/C=C/C(=O)c2c(-c3ccccc3)nn(C)c(=O)c2N2CCOCC2)cc1`: the GI50 with A549 is > 100 µM (inactive); with ACHN, > 100 µM (inactive); in the experiment with CAKI-1, > 100 µM (inactive); in the experiment on CCRF-CEM, 63 µM (inactive); in the experiment on COLO 205, > 100 µM (inactive); with EKVX, > 100 µM (inactive). The GI50 was 21.4 µM (inactive) in the experiment with HL-60; 40.5 µM (inactive) in the experiment with K562; 43.5 µM (inactive) in the experiment with MOLT-4; > 100 µM (inactive) in the experiment on NCI-H460; > 100 µM (inactive) with NCI-H522; > 100 µM (inactive) with UACC-62. For the same compound, the GI50 with UO-31 was > 100 µM (inactive).
Take `[O-]c1c[n+](CCCC[n+]2cc([O-])on2)no1`: the GI50 in the experiment with A549, in the experiment with ACHN, in the experiment with CAKI-1, with CCRF-CEM, in the experiment on COLO 205 and in the experiment with EKVX was > 100 µM (inactive) each time. The GI50 is > 100 µM (inactive) with HCC 2998; > 100 µM (inactive) in the experiment on HL-60; > 100 µM (inactive) with HOP-62; > 100 µM (inactive) in the experiment on K562; 22.8 µM (inactive) in the experiment on MOLT-4; > 100 µM (inactive) in the experiment with NCI-H460. The GI50 in the experiment with NCI-H522, in the experiment with OVCAR-3, in the experiment on OVCAR-4, in the experiment with SK-MEL-2, with UACC-62 and in the experiment with UO-31 was > 100 µM (inactive) in each case.
Regarding `OCC1C(/C=C/c2ccoc2)ON2CCCC12` (configuration not stated), the GI50 in the experiment on A549, with ACHN, in the experiment on CAKI-1, in the experiment with COLO 205, in the experiment on EKVX and with HCC 2998 was > 100 µM (inactive) each time. The GI50 with HL-60, with HOP-62, with NCI-H226, in the experiment on NCI-H460, in the experiment with NCI-H522 and with OVCAR-4 was > 100 µM (inactive) in each case. The GI50 with SK-MEL-2 and in the experiment with UO-31 was > 100 µM (inactive) in each case.
Regarding `N#CC[N+]1(Cc2ccccn2)CCCC1.O=S(=O)([O-])c1ccccc1`, the GI50 in the experiment on A549, in the experiment on ACHN, with CAKI-1, in the experiment with COLO 205, in the experiment on EKVX and in the experiment with HCC 2998 was > 100 µM (inactive) in each case. Moreover, the GI50 in the experiment with HL-60 was 70.6 µM (inactive); in the experiment with HOP-62, > 100 µM (inactive); in the experiment with K562 it was > 100 µM (inactive); in the experiment on MOLT-4 it was 7.01 µM (inactive); in the experiment with NCI-H226 it was > 100 µM (inactive); with NCI-H460, > 100 µM (inactive). Moreover, the GI50 in the experiment on NCI-H522, in the experiment with OVCAR-3, with OVCAR-4, in the experiment on SK-MEL-2, in the experiment with UACC-62 and in the experiment with UO-31 was > 100 µM (inactive) throughout.
In the case of `O=[N+]([O-])c1cccc(C2N3CCCCC3[C@@H]3c4[nH]c5ccccc5c4CCN23)c1` (some centres not stated), the GI50 with A549 is 14 µM (inactive); in the experiment on ACHN it was 15.9 µM (inactive); with CAKI-1, 28.4 µM (inactive); with CCRF-CEM, 13.2 µM (inactive); in the experiment with COLO 205, 13.2 µM (inactive); in the experiment with EKVX it was 23.1 µM (inactive). For the same compound, the GI50 is 10.1 µM (inactive) with HL-60; 16.3 µM (inactive) with HOP-62; 3.88 µM (inactive) in the experiment with K562; 5.85 µM (inactive) with MOLT-4; 16.4 µM (inactive) in the experiment on NCI-H460; 15.7 µM (inactive) with OVCAR-3. In addition, the GI50 with OVCAR-4 was 16 µM (inactive); with SK-MEL-2 it was 10.1 µM (inactive); with UACC-62 it was 6.79 µM (inactive); with UO-31 it was 11.9 µM (inactive).
Regarding `Nc1c(-c2ccc(Br)cc2)[n+]([O-])c2ccccc2[n+]1[O-]`, the GI50 in the experiment with A549 is 92 µM (inactive); in the experiment on ACHN it was > 100 µM (inactive); in the experiment on CAKI-1 it was > 100 µM (inactive); in the experiment with COLO 205, > 100 µM (inactive); with EKVX, > 100 µM (inactive); in the experiment with HL-60, 82.4 µM (inactive). Also, the GI50 with HOP-62 is > 100 µM (inactive); in the experiment with K562, 64.9 µM (inactive); in the experiment on MOLT-4, 39.2 µM (inactive); in the experiment on NCI-H226, > 100 µM (inactive); in the experiment with NCI-H460, > 100 µM (inactive); in the experiment with NCI-H522, 52.6 µM (inactive). Moreover, the GI50 with OVCAR-3 was 92 µM (inactive); in the experiment with OVCAR-4 it was > 100 µM (inactive); in the experiment on SK-MEL-2 it was > 100 µM (inactive); in the experiment on UO-31, 38.6 µM (inactive).
On to `CN(C)/C(=N/C(=S)Nc1ccccc1)SCc1ccccc1`, for which the GI50 in the experiment with A549 was 32 µM (inactive); in the experiment on ACHN, 45 µM (inactive); in the experiment on CAKI-1, 24.2 µM (inactive); in the experiment with CCRF-CEM, 11.7 µM (inactive); in the experiment with COLO 205, 14.9 µM (inactive); in the experiment on EKVX it was > 100 µM (inactive). In addition, the GI50 in the experiment with HCC 2998 is 36.4 µM (inactive); with HL-60, 18.2 µM (inactive); in the experiment with HOP-62, 71.6 µM (inactive); in the experiment on K562, 12.3 µM (inactive); in the experiment with MOLT-4, 32.5 µM (inactive); in the experiment with NCI-H226, 36.1 µM (inactive). Moreover, the GI50 with NCI-H522 was 2.73 µM (inactive); in the experiment on OVCAR-3, 56.8 µM (inactive); with OVCAR-4, 5.47 µM (inactive); in the experiment with SK-MEL-2, 49.9 µM (inactive); in the experiment on UACC-62, 6.17 µM (inactive); with UO-31 it was 22.5 µM (inactive).
For `CCc1ccccc1NC(=O)C1=C(C)NC(C)=C(C(=O)Nc2ccccc2CC)C1c1ccc(NC(C)=O)cc1`, the GI50 was 51.1 µM (inactive) with A549; 28.5 µM (inactive) in the experiment with ACHN; 43.1 µM (inactive) in the experiment on CAKI-1; 18.7 µM (inactive) with CCRF-CEM; 58.3 µM (inactive) in the experiment on COLO 205; 60.7 µM (inactive) in the experiment with EKVX. Further, the GI50 is 19.5 µM (inactive) in the experiment on HCC 2998; 14.3 µM (inactive) in the experiment on HL-60; 36.7 µM (inactive) with HOP-62; 23.1 µM (inactive) in the experiment on K562; 15.3 µM (inactive) with MOLT-4; 29.4 µM (inactive) in the experiment with NCI-H226. For the same compound, the GI50 is 30.5 µM (inactive) in the experiment with NCI-H460; 20.8 µM (inactive) in the experiment with NCI-H522; 33.2 µM (inactive) in the experiment with OVCAR-3; 35.1 µM (inactive) in the experiment on OVCAR-4; 22.4 µM (inactive) with SK-MEL-2; 35.2 µM (inactive) in the experiment with UO-31.
Regarding `Cc1c(C(=O)/C=C/c2ccc(N(C)C)cc2)c(=O)n(-c2ccccc2)n1C`, the GI50 with A549, in the experiment with ACHN, with CAKI-1, in the experiment with CCRF-CEM, in the experiment with COLO 205 and in the experiment with EKVX was > 100 µM (inactive) throughout. The GI50 in the experiment with HCC 2998, in the experiment on MOLT-4, in the experiment with NCI-H226, in the experiment on NCI-H460, in the experiment on NCI-H522 and with OVCAR-3 was > 100 µM (inactive) throughout. The GI50 in the experiment with SK-MEL-2, in the experiment on UACC-62 and with UO-31 was > 100 µM (inactive) in each case.

(Values after ChEMBL document CHEMBL1201862, “PubChem BioAssay data set” (2004).)
